According to patent publication US10550140B2 (Achillion Pharmaceuticals, Inc., priority 2014, dated 2020):
pIC50: −log10 of the molar value.

Biological target: Human factor D (Homo sapiens (Human), UniProt P00746)
Assay: Human Factor D Assay
Type: biochemical
Experimental: The assay of Example 8 was used to determine the IC50's of the compounds. Other standard factor D inhibition assays are also available.
Example 8. Human Factor D Assay
Human factor D (purified from human serum, Complement Technology, Inc.) at 80 nM final concentration is incubated with test compound at various concentrations for 5 minutes at room temperature in 50 mM Tris, 1M NaCl, pH 7.5. A synthetic substrate Z-L-Lys-SBzl and DTNB (Ellman's reagent) are added to final concentrations of 100 μM each. The increase in color is recorded at OD405 nm in a microplate in kinetic mode over 30 minutes with 30 second time points in a spectrofluorimeter. IC50 values are calculated by non-linear regression from the percentage of inhibition of complement factor D activity as a function of test compound concentration.

Sequence of Human factor D (P00746 26-253): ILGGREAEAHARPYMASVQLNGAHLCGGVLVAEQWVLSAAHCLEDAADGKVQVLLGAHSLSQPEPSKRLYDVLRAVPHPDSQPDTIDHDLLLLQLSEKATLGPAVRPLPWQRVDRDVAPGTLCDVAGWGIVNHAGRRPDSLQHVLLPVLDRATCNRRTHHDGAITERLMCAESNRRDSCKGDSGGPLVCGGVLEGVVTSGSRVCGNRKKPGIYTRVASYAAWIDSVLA

## CC(=O)c1cn(CC(=O)N2C[C@H](F)C[C@H]2C(=O)Nc2cccc(Br)c2)c2ccc(Oc3ncc(Br)cn3)cc12 [Compound 35]
  pIC50: > 6.00
